Consider two compounds from patent US8569511B2, “Substituted 3-(1H-benzo[d]imidazol-2-yl)-1H-indazole analogs as inhibitors of the PDK1 kinase” (University of Utah Research Foundation, priority 2011, dated 2013).

Usually IC50 stands for the point on the concentration scale where inhibition reaches its midpoint.

For assay [1], the target named is p70S6K (Homo sapiens (Human), UniProt P23443). As to the kind of experiment: Kinase profiling, fluorometric assays by Life Technologies. Type of assay: biochemical. The conditions noted are these: profiling at 500 nM, FIG. 8. As to the method:
(§1) The panel comprised 78 distinct protein kinases, and data are shown for a subset of 20 kineases (see FIG. 8). Kinase profiling was performed against a focus panel of kinases relevant to PDK1 signaling and other known oncogenic kinases. The activity profiling as performed at 500 nM and percent inhibition at that concentration was determined for each kinase shown.
(§2) The kinase specificity was measured using fluorometric assays performed by Life Technologies (Grand Island, N.Y.). Assay conditions vary for each kinase and are available from Life Technologies, Grand Island, NY. For example, the assay conditions for PDK1 are as follows. The 2×PDK1/Ser/Thr-07 mixture is prepared in 50 mM Tris pH 8.5, 0.01% BRIJ-35, 10 mM MgCl2, 1 mM EGTA, 0.02% NaN3. The final 10 μL Kinase Reaction consists of 7.36-38.7 ng PDK1 and 2 μM Ser/Thr 07. After the 1 hour kinase reaction incubation, 5 μL of a 1:32768 dilution of Development Reagent A is added.

In assay [2] the target is VEGFR2 (Homo sapiens (Human), UniProt P35968). Described as above. Format: biochemical. The conditions noted are these: profiling at 500 nM, FIG. 8. As to the method:
as §1, §2

The target in assay [3] is PDGFRA (Homo sapiens (Human), UniProt P16234). The description is as above. Type of assay: biochemical. The settings on record: profiling at 500 nM, FIG. 8. The protocol: as §1, §2
PDGFRA, sequence (P16234 24-1089): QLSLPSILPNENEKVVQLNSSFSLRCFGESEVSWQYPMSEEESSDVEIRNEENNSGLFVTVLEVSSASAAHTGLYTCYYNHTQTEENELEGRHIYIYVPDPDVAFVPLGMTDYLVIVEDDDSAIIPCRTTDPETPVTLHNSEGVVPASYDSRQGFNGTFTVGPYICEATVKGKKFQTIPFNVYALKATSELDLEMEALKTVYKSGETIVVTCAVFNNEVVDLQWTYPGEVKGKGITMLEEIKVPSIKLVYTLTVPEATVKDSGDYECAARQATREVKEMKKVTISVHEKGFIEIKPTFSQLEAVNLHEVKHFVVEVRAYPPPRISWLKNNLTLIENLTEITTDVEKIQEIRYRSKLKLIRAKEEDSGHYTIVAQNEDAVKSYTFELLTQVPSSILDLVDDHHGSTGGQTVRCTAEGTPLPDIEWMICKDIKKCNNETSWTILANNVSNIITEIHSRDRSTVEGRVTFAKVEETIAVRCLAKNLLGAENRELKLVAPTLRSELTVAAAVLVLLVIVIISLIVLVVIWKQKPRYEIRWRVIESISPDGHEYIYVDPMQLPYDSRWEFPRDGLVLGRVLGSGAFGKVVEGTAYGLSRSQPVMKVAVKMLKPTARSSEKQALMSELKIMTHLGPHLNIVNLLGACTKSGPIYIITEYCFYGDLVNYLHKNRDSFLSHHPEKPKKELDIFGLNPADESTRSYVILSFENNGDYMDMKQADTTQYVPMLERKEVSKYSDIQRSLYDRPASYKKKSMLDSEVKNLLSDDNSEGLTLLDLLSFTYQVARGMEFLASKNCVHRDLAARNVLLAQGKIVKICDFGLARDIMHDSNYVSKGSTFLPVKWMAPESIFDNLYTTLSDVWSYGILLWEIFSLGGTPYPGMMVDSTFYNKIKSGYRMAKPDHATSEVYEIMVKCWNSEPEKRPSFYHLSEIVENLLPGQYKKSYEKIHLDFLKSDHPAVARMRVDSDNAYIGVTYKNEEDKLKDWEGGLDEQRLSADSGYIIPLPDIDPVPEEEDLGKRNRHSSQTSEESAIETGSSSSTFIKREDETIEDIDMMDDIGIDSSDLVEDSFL
The target of assay [4] is VEGFR1 (Homo sapiens (Human), UniProt P17948). The assay is described as above. Type of assay: biochemical. The settings on record: profiling at 500 nM, FIG. 8. As to the method:
as §1, §2

Assay [5] concerns HCT-116. Kind of assay: Cell viability assay, cancer cell line panel. Type of assay: cell-based. The conditions noted are these: Homo sapiens, mutation KRAS, PIK3CA.
Assay [6] concerns HT-29. Kind of assay: Cell viability assay, cancer cell line panel. The conditions noted are these: Homo sapiens, mutation PIK3CA, BRAF. Format: cell-based.
The test system of assay [7] is AKT phosphorylation (Thr308) in AN3-CA cells. As to the kind of experiment: AKT (T308) Phosphorylation Assay (Meso Scale Discovery). Format: cell-based. The settings on record: Homo sapiens, 24 hours, FIG. 7A, read-out: IC50 knock down of phospho-AKT (Thr308) levels. The protocol: AN3-CA cells were plated in 900 μl of RPMI-1640 media supplemented with 10% FBS and 1% Pen/Strep at a density of 8×10^5 cells per well in 6-well plates. Cells were allowed to attach by incubation overnight at 37° C. and 5% CO2. Test compounds were diluted to 10× concentrations in RPMI-1640 media (containing 3% DMSO) and 100 μl of these dilutions were added to the appropriate wells containing the cells. The plates containing the drug-treated cells and appropriate controls were incubated for 24 hours. At the end of incubation, phosphorylated AKT was evaluated in treated and control samples using a Meso Scale Discovery (Gaithersburg, Md.) assay kit (human Phospho-Akt (Thr308) kit) and by following the manufacturer's instructions included with the kit. Total AKT (phosphorylated and unphosphorylated) was also evaluated in the samples using a separate kit (Meso Scale Discovery). The percentage of AKT phosphorylated at the Thr308 position (also indicated as T308 herein) was determined by normalizing the phospho-AKT signal to the total AKT signal and then showing the percent phosphorylation in the treated samples relative to the controls.
Briefly, AN3-CA cells were treated with the compound for 24 hours and lysates from these treatments were analyzed for phospho-AKT (Thr308) using the Meso Scale Discovery technology platform as described above.

Assay [8] deals with PC-3. Kind of assay: Cell viability assay, cancer cell line panel. Type of assay: cell-based. The conditions noted are these: Homo sapiens, mutation PTEN.
Assay [9] deals with T47D. Kind of assay: Cell viability assay, cancer cell line panel. The conditions noted are these: Homo sapiens, mutation PIK3CA. Type of assay: cell-based.
In assay [10] the test system is HCT-15. Kind of assay: Cell viability assay, cancer cell line panel. Format: cell-based. The conditions noted are these: Homo sapiens, mutation KRAS, PIK3CA.
Assay [11] deals with 82 cell lines representing more than 20 tumor types. Kind of assay: Screen of a further 82 cell lines (8-point serial dilution). Format: cell-based. An excerpt: In order to determine if there were additional cell lines that were profoundly sensitive to this compound, a further 82 cell lines were screened which represented more than 20 different tumor types of origin. […] Without wishing to bound by a particular theory, these three additional cell lines are all acute myeloid leukemic lines that have different activating mutations in oncogenes that have been associated with elevated PI3K activity. MV4-11 has the FLT3 internal tandem duplication (ITD) and Kasumi-1 has amplified and mutated c-kit as well as the AML-ETO gene fusion. […] All three lines have wild-type PTEN but have shown to express very low levels of PTEN protein, which makes them functionally deficient for PTEN.

Assay [12] concerns SK-OV-3. Kind of assay: Cell viability assay, cancer cell line panel. Type of assay: cell-based. The settings on record: Homo sapiens, mutation PIK3CA.
Assay [13] deals with BT-20. As to the kind of experiment: Cell viability assay, cancer cell line panel. The conditions noted are these: Homo sapiens, mutation PIK3CA. Format: cell-based.
Assay [14] concerns phosphorylation of the ribosomal S6 protein. As to the kind of experiment: Western blot of phospho-S6 in excised xenograft tumors. Type of assay: in vivo, athymic nude mice. The settings on record: western blot of tumors after the study, 50 mg/kg IP. As to the method: Cells were washed with PBS and whole cell lysates were prepared by incubating cells in […] (Invitrogen Corporation, Carlsbad, Calif.) supplemented with Protease Inhibitor Cocktail (Roche Applied Science, a division of Roche Diagnostics Corporation, Indianapolis, Ind.) and Phosphatase Inhibitor Cocktail (Roche) on ice for 30 minutes. After centrifuging the lysates at 12,000 rpm for 10 minutes at 4° C., the supernatant was collected. Protein concentration was determined using BCA Assay. The same amounts of protein were run on NuPAGE 4-12% Bis-Tris Gel, and then transferred onto a PVDF membrane. […]
The in vivo effects of compounds were determined in a mouse subcutaneous xenograft tumor model wherein AN3-CA cells were implanted subcutaneously into the hind flank of athymic nude mice. […] Tumor volume was determined using the formula L×W2×0.5, where L is the longest length, and W is the shortest length. Tumor volume and body weight was measured twice a week.
Following the study, the tumors from the vehicle and test compound groups were removed from the animals and analyzed for phosho-S6 levels by western blot (FIG. 10C). […]

Structures are written as SMILES. Read-outs that look alike come from different tables or passages of the source.

p70S6K, sequence (P23443 whole entry): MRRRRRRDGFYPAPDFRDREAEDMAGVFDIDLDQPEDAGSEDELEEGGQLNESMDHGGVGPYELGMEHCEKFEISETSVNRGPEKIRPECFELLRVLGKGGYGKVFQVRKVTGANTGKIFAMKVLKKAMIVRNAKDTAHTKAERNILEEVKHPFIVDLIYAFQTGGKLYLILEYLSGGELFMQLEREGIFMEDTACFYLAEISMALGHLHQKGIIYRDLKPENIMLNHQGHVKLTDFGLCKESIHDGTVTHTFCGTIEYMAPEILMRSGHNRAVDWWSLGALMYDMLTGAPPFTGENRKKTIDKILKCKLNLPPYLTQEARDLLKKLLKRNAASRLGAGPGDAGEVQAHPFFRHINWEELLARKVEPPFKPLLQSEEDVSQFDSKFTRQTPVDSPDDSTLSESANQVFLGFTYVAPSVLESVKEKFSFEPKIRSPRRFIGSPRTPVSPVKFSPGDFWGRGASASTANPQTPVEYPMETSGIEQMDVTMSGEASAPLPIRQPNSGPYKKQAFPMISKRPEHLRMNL
VEGFR2, sequence (P35968 20-1356): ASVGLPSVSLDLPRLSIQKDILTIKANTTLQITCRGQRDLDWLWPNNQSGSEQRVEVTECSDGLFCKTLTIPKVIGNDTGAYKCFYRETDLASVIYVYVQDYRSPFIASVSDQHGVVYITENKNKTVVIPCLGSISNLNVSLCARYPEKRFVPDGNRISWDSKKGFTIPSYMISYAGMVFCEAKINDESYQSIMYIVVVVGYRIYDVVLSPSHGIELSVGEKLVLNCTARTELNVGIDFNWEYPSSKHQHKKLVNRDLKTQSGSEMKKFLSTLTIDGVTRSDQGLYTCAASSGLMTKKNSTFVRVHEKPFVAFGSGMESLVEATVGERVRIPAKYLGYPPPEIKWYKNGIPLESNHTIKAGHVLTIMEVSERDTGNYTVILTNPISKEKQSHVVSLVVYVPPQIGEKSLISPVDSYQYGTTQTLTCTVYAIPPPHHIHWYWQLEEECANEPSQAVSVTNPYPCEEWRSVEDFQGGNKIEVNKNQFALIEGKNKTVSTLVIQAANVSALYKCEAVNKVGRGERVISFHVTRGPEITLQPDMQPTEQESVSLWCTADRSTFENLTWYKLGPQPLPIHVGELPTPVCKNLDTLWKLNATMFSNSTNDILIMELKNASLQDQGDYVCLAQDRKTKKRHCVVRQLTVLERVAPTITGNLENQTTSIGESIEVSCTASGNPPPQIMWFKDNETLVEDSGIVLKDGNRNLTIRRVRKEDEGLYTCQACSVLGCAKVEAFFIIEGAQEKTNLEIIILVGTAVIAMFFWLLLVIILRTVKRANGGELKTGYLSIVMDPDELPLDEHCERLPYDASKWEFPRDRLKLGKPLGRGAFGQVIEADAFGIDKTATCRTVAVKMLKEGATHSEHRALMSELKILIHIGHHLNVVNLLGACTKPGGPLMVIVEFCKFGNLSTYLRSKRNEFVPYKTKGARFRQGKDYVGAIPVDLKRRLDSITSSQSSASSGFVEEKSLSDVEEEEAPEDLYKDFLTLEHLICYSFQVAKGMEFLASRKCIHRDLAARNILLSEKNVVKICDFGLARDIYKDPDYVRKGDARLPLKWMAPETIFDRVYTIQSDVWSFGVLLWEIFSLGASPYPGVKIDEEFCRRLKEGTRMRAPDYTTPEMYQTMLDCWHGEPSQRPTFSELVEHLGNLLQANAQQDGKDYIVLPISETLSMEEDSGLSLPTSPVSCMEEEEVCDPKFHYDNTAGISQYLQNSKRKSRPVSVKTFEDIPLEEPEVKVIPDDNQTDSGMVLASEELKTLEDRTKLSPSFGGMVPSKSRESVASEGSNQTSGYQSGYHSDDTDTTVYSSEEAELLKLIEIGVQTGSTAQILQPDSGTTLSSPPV
VEGFR1, sequence (P17948 27-1338): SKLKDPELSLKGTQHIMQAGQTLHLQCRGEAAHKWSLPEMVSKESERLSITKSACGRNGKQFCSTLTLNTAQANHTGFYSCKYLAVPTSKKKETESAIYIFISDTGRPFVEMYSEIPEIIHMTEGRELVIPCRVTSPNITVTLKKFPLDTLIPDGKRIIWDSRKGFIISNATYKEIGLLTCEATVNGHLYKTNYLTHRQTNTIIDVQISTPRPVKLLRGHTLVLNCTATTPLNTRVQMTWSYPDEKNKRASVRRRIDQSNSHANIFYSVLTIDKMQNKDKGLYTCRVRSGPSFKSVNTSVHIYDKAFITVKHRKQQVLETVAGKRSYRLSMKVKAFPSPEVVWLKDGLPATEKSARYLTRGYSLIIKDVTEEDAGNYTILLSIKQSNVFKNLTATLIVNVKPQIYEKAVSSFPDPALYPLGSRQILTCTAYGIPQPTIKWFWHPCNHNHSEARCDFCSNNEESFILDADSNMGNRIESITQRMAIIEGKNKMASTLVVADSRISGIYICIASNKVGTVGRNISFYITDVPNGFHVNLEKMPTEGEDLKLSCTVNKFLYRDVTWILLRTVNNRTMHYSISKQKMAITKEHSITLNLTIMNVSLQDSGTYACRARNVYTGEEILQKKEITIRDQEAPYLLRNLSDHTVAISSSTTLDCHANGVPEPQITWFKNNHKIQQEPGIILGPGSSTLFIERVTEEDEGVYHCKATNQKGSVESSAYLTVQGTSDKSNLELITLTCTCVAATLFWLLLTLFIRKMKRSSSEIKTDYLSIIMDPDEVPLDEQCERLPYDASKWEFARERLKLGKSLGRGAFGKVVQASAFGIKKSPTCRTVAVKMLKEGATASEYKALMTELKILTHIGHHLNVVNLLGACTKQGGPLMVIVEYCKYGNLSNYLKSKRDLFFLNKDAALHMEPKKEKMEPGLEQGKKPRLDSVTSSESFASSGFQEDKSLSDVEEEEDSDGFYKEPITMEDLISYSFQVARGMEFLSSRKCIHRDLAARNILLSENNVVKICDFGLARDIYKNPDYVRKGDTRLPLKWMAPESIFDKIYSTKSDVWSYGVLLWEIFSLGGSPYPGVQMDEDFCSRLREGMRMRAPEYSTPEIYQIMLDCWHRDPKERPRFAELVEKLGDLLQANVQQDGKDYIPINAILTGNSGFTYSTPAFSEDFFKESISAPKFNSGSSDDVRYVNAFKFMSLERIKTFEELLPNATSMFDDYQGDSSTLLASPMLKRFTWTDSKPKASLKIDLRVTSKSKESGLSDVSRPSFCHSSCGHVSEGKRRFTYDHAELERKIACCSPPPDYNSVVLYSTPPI

On to `O=C(Nc1ccc2[nH]nc(-c3nc4ccc(N5CCOCC5)cc4[nH]3)c2c1)C1CC1(F)F` (stereo not shown) [Compound 1, 2,2-difluoro-N-(3-(5-morpholino-1H-benzo[d]imidazol-2-yl)-1H-indazol-5-yl)cyclopropanecarboxamide], for which the “Kinase profiling activity against p70S6K (in words)” value in assay [1] is “potent activity”. Further, in [2], the “Kinase profiling activity against VEGFR2 (in words)” value is “relatively potent activity”. Further, in assay [3], the “Kinase profiling activity against PDGFRA (in words)” value was “relatively potent activity”. Besides, the “Kinase profiling activity against VEGFR1 (in words)” value in assay [4] was “relatively potent activity”. The IC50 turned out to be 2.52 µM in assay [5]; 10.6 µM in [6]; 0.051 µM in [7]; 7.56 µM in assay [8]; 12.8 µM in assay [9]; 6.99 µM in assay [10]. For the same compound, the IC50 in assay [11] (68 of the cell lines, 10 μM down to 3 nM, read-out: IC50 in 68 of the 82 cell lines) was > 1 µM; in assay [11] (read-out: IC50 in 5 cell lines) it was < 0.1 µM; in assay [12], 1.89 µM; in [13] it was 13.1 µM. Moreover, the “IC50 in 9 of the 82 cell lines” value in assay [11] (9 cell lines) is on record as “hundreds of nano-molar range”.

`CC1CN(c2ccc3nc(-c4n[nH]c5ccc(NC(=O)C6CC6(F)F)cc45)[nH]c3c2)CCO1` (stereo not shown) [Compound 2, 2,2-difluoro-N-(3-(5-(2-methylmorpholino)-1H-benzo[d]imidazol-2-yl)-1H-indazol-5-yl)cyclopropanecarboxamide]: in assay [14], the “Phospho-S6 levels in tumors compared to the vehicle group” value is “down-regulation of phospho-S6 levels”.
